The record followed here is paper PMC10683761 (ACS Sensors, 2023).

Common to all, as to assay type: cell-based, human
For one assay, the system named is dLight1.1. Particulars: 10 μM compound, sensor dLight1.1, mean ± SEM, N = 40 cells.
Assay [1] deals with dMASS^1. The settings on record: 10 μM compound, sensor dMASS^1, mean ± SEM, N = 40 cells.
The test system of assay [2] is dMASS^1. Description: dMASS^1 response to 1 μM DA in presence of dopamine receptor subtype antagonists.

For the molecule `CN1CCc2cc(Cl)c(O)cc2[C@@H](c2ccccc2)C1` [SCH23390], the “response normalized to 10 μM DA stimulation” value (“response normalized” for short) with dLight1.1 turned out to be 8.87 ± 0.58%; with dMASS^1 [1] it was 3.58 ± 0.16%.

`CCN1CCCC1CNC(=O)c1cc(S(N)(=O)=O)ccc1OC` (centres unmarked) [Sulpiride]: the “effect on DA-dependent response of dMASS^1” value in the assay with dMASS^1 [2] was “but not dMASS^1”.

As for `NCCc1c[nH]c2ccc(O)cc12` [5-HT, 5-hydroxytryptamine], the “response normalized” value with dLight1.1 stood at 6.61 ± 0.69%; in the assay with dMASS^1 [1] it was 3.32 ± 0.20%.

With `CC(C)NCC(O)c1ccc(O)c(O)c1` (centres unmarked) [Iso, isoproterenol], the “response normalized” value turned out to be 8.89 ± 0.83% in the assay with dLight1.1 and 3.80 ± 0.21% in the assay on dMASS^1 [1].

Take `CC(=O)OCC[N+](C)(C)C` [ACh, acetylcholine]: the “response normalized” value in the assay on dLight1.1 stood at 8.22 ± 0.58%; in the assay on dMASS^1 [1], 3.61 ± 0.14%.

For the molecule `NC[C@H](O)c1ccc(O)c(O)c1` [NE, norepinephrine], the “response normalized” value in the assay with dLight1.1 is 55.06 ± 4.31%; in the assay with dMASS^1 [1] it was 58.00 ± 3.46%.
